Results: patent publication US20040171073A1, “Compounds for modulation of cholesterol transport” (Massachusetts Institute of Technology, priority 2002, published 2004)

Biological target: T1, murine SR-BI (Mus musculus, UniProt Q61009)
T1 construct: expressed in transfected cells; host or cells: ldlA-7 (LDL receptor deficient Chinese hamster ovary cells)
T1 sequence (Q61009 1-509): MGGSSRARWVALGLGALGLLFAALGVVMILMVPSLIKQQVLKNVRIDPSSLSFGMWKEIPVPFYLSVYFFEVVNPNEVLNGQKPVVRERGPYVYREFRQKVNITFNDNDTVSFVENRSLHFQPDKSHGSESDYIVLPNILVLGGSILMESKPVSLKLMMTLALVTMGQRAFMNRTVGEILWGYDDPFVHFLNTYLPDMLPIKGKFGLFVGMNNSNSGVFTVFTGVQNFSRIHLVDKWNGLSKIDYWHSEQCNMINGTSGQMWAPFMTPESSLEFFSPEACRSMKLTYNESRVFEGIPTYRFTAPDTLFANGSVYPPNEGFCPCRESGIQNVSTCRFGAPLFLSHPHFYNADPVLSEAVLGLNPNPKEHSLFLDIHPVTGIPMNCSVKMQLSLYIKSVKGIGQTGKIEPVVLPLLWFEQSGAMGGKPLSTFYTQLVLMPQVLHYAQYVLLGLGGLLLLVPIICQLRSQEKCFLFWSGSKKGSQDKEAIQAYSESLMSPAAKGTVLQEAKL
Test: Uptake of DiI from DiI-HDL by ldlA[mSR-BI] cells (high throughput screen and concentration dependence)
Assay type: cell-based

[1] = DiI uptake from DiI-HDL, compounds at nominal 10 micromolar, ldlA[mSR-BI] cells

Row | SMILES | ENDOHDL Test 1 | ENDOHDL Test 2 | ENDOHDL Test 1 [1] | ENDOHDL Test 2 [1]
1 | O=C(Oc1ccc2c(=O)c(Oc3ccccc3)coc2c1)C1CCCN1C(=O)OCc1ccccc1 (centres unmarked) [MIT 9952-145] | 1.28 | 1.34 | – | –
2 | Cc1cc(O)nc2cc3oc4ccccc4c3cc12 [MIT 9952-322] | – | – | 0.79 | 0.86
3 | Nc1cc2cccnc2c2ncccc12 [MIT 9952-230] | 0.61 | 0.51 | – | –
4 | Cc1nn(-c2ccc([N+](=O)[O-])cc2)c(Cl)c1[N+](=O)[O-] [MIT 9952-103] | 0.56 | 0.61 | – | –
5 | CC1(C)C(C(=O)OCC(=O)c2ccc([N+](=O)[O-])cc2)CCC1C(=O)OCC(=O)c1ccc([N+](=O)[O-])cc1 (centres unmarked) [MIT 9952-129] | 0.57 | 0.54 | – | –
6 | COc1cc2ccccc2cc1C(=O)Nc1cccc(C)c1 [MIT 9952-237] | 0.53 | 0.39 | – | –
7 | CCOC(=O)c1c(/N=C/c2ccccc2[N+](=O)[O-])sc2c1CCCC2 [MIT 9952-187] | 0.33 | 0.46 | – | –
8 | CCN(CC)CC(=O)Nc1ccc2c(c1)Nc1ccccc1CC2.Cl [MIT 9952-158] | 0.42 | 0.39 | – | –
9 | CCCCCOc1ccc(-c2ccc(C(=O)NC(NCc3ccccc3)C(Cl)(Cl)Cl)cc2)cc1 (centres unmarked) [MIT 9952-247] | 0.63 | 0.64 | – | –
10 | COc1ccc(/C(C)=N/NC(=O)C2CC2(c2ccccc2)c2ccccc2)c(OC)c1 (centres unmarked) [MIT 9952-93] | 0.66 | 0.71 | – | –
11 | NC(=O)N/N=C/c1ccc(-c2ccc([N+](=O)[O-])cc2)o1 [MIT 9952-326] | – | – | 0.55 | 0.53
12 | NC(=S)Nc1ccc2c(c1)Nc1ccccc1CC2 [MIT 9952-175] | 0.42 | 0.51 | – | –
13 | CCCCN1CCC(O)(c2ccccc2)C(C(=O)c2ccccc2)C1 (centres unmarked) [MIT 9952-142] | 1.28 | 1.32 | – | –
14 | O=C(COc1ccc(Cl)cc1)N/N=C/c1ccc(Cl)cc1 [MIT 9952-124] | 1.33 | 1.17 | – | –
15 | Cc1cccc(C(=O)Nc2cccc(Cl)c2)c1 [MIT 9952-279] | – | – | 0.64 | 0.63
16 | CN(N)c1nc(-c2ccccc2)cc(-c2ccccc2)n1 [MIT 9952-252] | 0.58 | 0.39 | – | –
17 | C=C(N/N=C(\C)c1ccccc1C(=O)O)c1ccccc1 [MIT 9952-56] | 1.26 | 1.26 | – | –
18 | CC(C)(C)c1ccc(C(=O)Nc2ccccc2C(=O)Cl)cc1 [MIT 9952-47] | 1.18 | 1.37 | – | –
19 | Cc1ccsc1/C=N/NC(=O)c1cccc([N+](=O)[O-])c1 [MIT 9952-323] | – | – | 0.46 | 0.63
20 | NC(=O)N/N=C/c1ccc(-c2ccc([N+](=O)[O-])cc2)o1 [MIT 9952-126] | 0.55 | 0.53 | – | –
21 | CCOc1ccc(NC(=O)/C=C/c2cccc([N+](=O)[O-])c2)cc1 [MIT 9952-255] | 0.61 | 0.6 | – | –

Row | SMILES | ENDOHDL Test 1 | ENDOHDL Test 2 | ENDOHDL Test 1 [1] | ENDOHDL Test 2 [1]
22 | Br.NS(=O)(=O)c1ccc(Nc2nc(-c3ccc(Cl)cc3)cs2)cc1 [MIT 9952-293] | – | – | 0.69 | 0.67
23 | COc1ccc([N+](=O)[O-])cc1NC(=O)c1ccccc1 [MIT 9952-238] | 0.61 | 0.6 | – | –
24 | COC(=O)Nc1cc([N+](=O)[O-])cc([N+](=O)[O-])c1Br [MIT 9952-79] | 0.61 | 0.63 | – | –
25 | COc1ccc([N+](=O)[O-])cc1NC(=S)NC(NC(=O)C(c1ccccc1)c1ccccc1)C(Cl)(Cl)Cl (centres unmarked) [MIT 9952-140] | 0.52 | 0.58 | – | –
26 | O=C1CC(N2CCOCC2)C(=O)N1c1ccc(Br)cc1 (centres unmarked) [MIT 9952-3] | 1.32 | 1.17 | – | –
27 | CCOC1=C(C(C)=O)NC(c2ccc(OC)cc2)C(=S)N1 (centres unmarked) [MIT 9952-278] | 0.71 | 0.67 | – | –
28 | CN(C)/C=N/C(=O)CN1CCCC1=O [MIT 9952-148] | 1.44 | 1.32 | – | –
29 | Nc1ccc(C(=O)Nc2ccc(-c3nc4ccc(NC(=O)c5ccc(N)cc5)c(Cl)c4[nH]3)cc2Cl)cc1 [MIT 9952-334] | – | – | 0.57 | 0.55
30 | Cc1cccc(N2C(=O)CN(C3CCOCC3)C2=O)c1 [MIT 9952-2] | 1.34 | 1.2 | – | –
31 | CN(C)CC(=O)Nc1ccc2c(c1)Nc1ccccc1CC2.Cl [MIT 9952-152] | 0.51 | 0.43 | – | –
32 | COC(=O)/C=C1/Nc2ccccc2OC1=O [MIT 9952-151] | 1.22 | 1.36 | – | –
33 | NS(=O)(=O)c1ccc(N=N/C(=N/Nc2ccc(S(N)(=O)=O)cc2)c2ccccc2)cc1 [MIT 9952-204] | 0.55 | 0.62 | – | –
34 | CCOC(=O)c1sc(-c2ccccc2)nc1-c1ccc([N+](=O)[O-])cc1 [MIT 9952-165] | 0.57 | 0.6 | – | –
35 | CC(CC(=O)NCCc1c[nH]c2ccccc12)C(=O)Cl (centres unmarked) [MIT 9952-12] | 1.25 | 1.26 | – | –
36 | O=C(Nc1ccc(Oc2ccc(Cl)c3cccnc23)c(Cl)c1)c1ccc([N+](=O)[O-])cc1 [MIT 9952-324] | – | – | 0.55 | 0.56
37 | CC(=O)Oc1ccc2ccccc2c1C=O [MIT 9952-13] | 0.55 | 0.67 | – | –
38 | CC(=O)c1c(C)n(-c2ccccc2)c2ccc(O)cc12 [MIT 9952-119] | 0.62 | 0.64 | – | –
39 | O=C(/C=C/c1ccccc1)NC(NC(=S)Nc1cccc([N+](=O)[O-])c1)C(Cl)(Cl)Cl (centres unmarked) [MIT 9952-7] | 0.5 | 0.51 | – | –
40 | CCCCOCCC1CCC/C1=N\NC(N)=S (centres unmarked) [MIT 9952-249] | 0.7 | 0.57 | – | –
41 | O=C(O)C(Cc1ccccc1)N1C(=O)CSC1=S (centres unmarked) [MIT 9952-202] | 1.23 | 1.11 | – | –
42 | O=C(Nc1ccc(-c2nc3ccccc3s2)cc1)c1ccc(Cl)cc1Cl [MIT 9952-284] | – | – | 0.65 | 0.54

Row | SMILES | ENDOHDL Test 1 | ENDOHDL Test 2 | ENDOHDL Test 1 [1] | ENDOHDL Test 2 [1]
43 | COc1ccc([N+](=O)[O-])cc1NC(=S)NC(NC(=O)c1ccccc1Br)C(Cl)(Cl)Cl (centres unmarked) [MIT 9952-125] | 0.63 | 0.66 | – | –
44 | O=C(C[n+]1ccc(CCSC2Cc3cccc4cccc2c34)cc1)c1ccc([N+](=O)[O-])cc1 (centres unmarked) [MIT 9952-75] | 0.64 | 0.71 | – | –
45 | c1ccc(-c2cc3c(ccc4nonc43)[nH]2)cc1 [MIT 9952-262] | 0.53 | 0.45 | – | –
46 | CCn1c(/C=C/C=C2\SCCN2C)[n+](CC)c2cc(Cl)ccc21 [MIT 9952-92] | 0.7 | 0.63 | – | –
47 | Cc1cccc(C(=O)N/N=C/c2ccccc2Cl)c1 [MIT 9952-194] | 0.76 | 0.46 | – | –
48 | O=[N+]([O-])c1cccc(/C=N\Nc2nc(Nc3ccc(Cl)cc3)nc(N3CCOCC3)n2)c1 [MIT 9952-209] | 0.46 | 0.59 | – | –
49 | CN1CCc2c(c3ccccc3n2-c2ccccc2)C1.Cl [MIT 9952-197] | 0.58 | 0.71 | – | –
50 | Cc1ccc2[nH]c3c(c2c1)CCCC3NCC12CC3CC(CC(C3)C1)C2 (centres unmarked) [MIT 9952-265] | 0.26 | 0.89 | – | –
51 | O=C1CC(N2CCOCC2)C(=O)N1c1ccc(Br)cc1 (centres unmarked) [MIT 9952-96] | 1.32 | 1.17 | – | –
52 | O=C(NC(NC(=S)Nc1ccc2ccccc2c1)C(Cl)(Cl)Cl)c1cccc([N+](=O)[O-])c1 (centres unmarked) [MIT 9952-216] | 0.54 | 0.58 | – | –
53 | O=C(Nc1ccc(Cl)cc1)c1ccc(N2C(=O)c3ccc(C(=O)Nc4ccc(Cl)cc4)cc3C2=O)cc1 [MIT 9952-161] | 1.37 | 1.5 | – | –
54 | COc1ccc(N2C(=O)CC(N3CCCCC3)C2=O)cc1 (centres unmarked) [MIT 9952-16] | 1.25 | 1.26 | – | –
55 | CCn1c(COC)c(-c2ccccc2)c2cc([N+](=O)[O-])ccc21 [MIT 9952-143] | 0.66 | 0.65 | – | –
56 | Brc1ccc2c(c1)OCCSCCOCCOCCSCCO2 [MIT 9952-244] | 0.56 | 0.54 | – | –
57 | CC(=O)OCc1c(C)cc(C)c(/C=N/Nc2ccc([N+](=O)[O-])cc2)c1C [MIT 9952-273] | 0.51 | 0.48 | – | –
58 | CCOC(C(=O)OC(C)CN(C)C)(c1ccccc1)c1ccccc1.Cl (centres unmarked) [MIT 9952-128] | 1.23 | 1.36 | – | –
59 | CC[n+]1c(/C=C/SC)ccc2ccccc21 [MIT 9952-260] | 0.56 | 0.58 | – | –
60 | CC(C)C(=O)NC(NC(=S)Nc1cccc(C(=O)Cl)c1)C(Cl)(Cl)Cl (centres unmarked) [MIT 9952-117] | 1.26 | 1.58 | – | –
61 | Cc1nn(-c2ccccc2)c(Cl)c1/N=N/c1ccccc1 [MIT 9952-138] | 0.54 | 0.63 | – | –
